According to the supplement of paper PMC10307832:

Key:
Assay in all cases: relative viability (nuclei count vs DMSO), 5 days (fraction); higher = more cells survive
[1] = compound: O=C(c1cc(Cc2n[nH]c(=O)c3ccccc23)ccc1F)N1CCN(C(=O)C2CC2)CC1 [Olaparib] + Nc1nc2[nH]cc(CCc3ccc(C(=O)N[C@@H](CCC(=O)O)C(=O)O)cc3)c2c(=O)[nH]1 [Pemetrexed] (partner 0.2 µM)
In short: (§1)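 Five library-drug doses in √10 steps were combined with a fixed anchor-drug dose, or a single drug was given alone, by pin tool to lung cancer cell lines in 1536-well plates the day after seeding. Nuclei were stained and counted after 5 days. Relative viability is the nuclei count in treated wells over that in vehicle wells, taken as the median of duplicate plates.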

[2] = compound: CC(C)C[C@H](NC(=O)[C@H](CCc1ccccc1)NC(=O)CN1CCOCC1)C(=O)N[C@@H](Cc1ccccc1)C(=O)N[C@@H](CC(C)C)C(=O)[C@@]1(C)CO1 [Carfilzomib] + Nc1nc2[nH]cc(CCc3ccc(C(=O)N[C@@H](CCC(=O)O)C(=O)O)cc3)c2c(=O)[nH]1 [Pemetrexed] (partner 0.2 µM)
In short: as §1

[3] = compound: CC(C)C[C@H](NC(=O)[C@H](CCc1ccccc1)NC(=O)CN1CCOCC1)C(=O)N[C@@H](Cc1ccccc1)C(=O)N[C@@H](CC(C)C)C(=O)[C@@]1(C)CO1 [Carfilzomib] + CCNC(=O)c1noc(-c2cc(C(C)C)c(O)cc2O)c1-c1ccc(CN2CCOCC2)cc1 [Luminespib] (partner 0.01 µM)
In short: as §1

[4] = compound: CC(C)C[C@H](NC(=O)[C@H](CCc1ccccc1)NC(=O)CN1CCOCC1)C(=O)N[C@@H](Cc1ccccc1)C(=O)N[C@@H](CC(C)C)C(=O)[C@@]1(C)CO1 [Carfilzomib] + Cc1nc(NC(=O)N2CCC[C@H]2C(N)=O)sc1-c1ccnc(C(C)(C)C(F)(F)F)c1 [Alpelisib] (partner 2 µM)
In short: as §1

| Cell Line | relative viability ([1]; first compound 0.08 µM) | relative viability ([1]; first compound 0.253 µM) | relative viability ([1]; first compound 2.53 µM) | relative viability ([1]; first compound 8 µM) | relative viability ([2]; first compound 0.001 µM) | relative viability ([2]; first compound 0.003162 µM) | relative viability ([2]; first compound 0.01 µM) | relative viability ([2]; first compound 0.03162 µM) | relative viability ([2]; first compound 0.1 µM) | relative viability ([3]; first compound 0.001 µM) | relative viability ([3]; first compound 0.003162 µM) | relative viability ([3]; first compound 0.01 µM) | relative viability ([3]; first compound 0.03162 µM) | relative viability ([3]; first compound 0.1 µM) | relative viability ([4]; first compound 0.001 µM) | relative viability ([4]; first compound 0.003162 µM) | relative viability ([4]; first compound 0.01 µM) | relative viability ([4]; first compound 0.03162 µM) | relative viability ([4]; first compound 0.1 µM) |
| --- | --- | --- | --- | --- | --- | --- | --- | --- | --- | --- | --- | --- | --- | --- | --- | --- | --- | --- | --- |
| NCI-H1755 | 0.447 | 0.68 | 0.419 | 0.396 | 0.42 | 0.497 | 0.475 | 0.37 | 0.311 | 0.54 | 0.367 | 0.481 | 0.288 | 0.453 | 0.917 | 0.948 | 0.925 | 0.601 | 0.202 |
| NCI-H1792 | 0.86 | 0.547 | 0.605 | 0.398 |  | 0.937 | 0.773 | 0.49 | 0.0813 | 0.425 | 0.423 | 0.482 | 0.456 | 0.356 | 0.648 | 0.742 | 0.674 | 0.756 | 0.386 |
| NCI-H1915 | 0.553 | 0.493 | 0.511 | 0.419 | 0.559 | 0.516 | 0.578 | 0.59 | 0.0792 | 0.698 | 0.781 | 0.766 | 0.375 | 0.0837 | 1.05 | 1.1 | 1.04 | 0.689 | 0.0648 |
| NCI-H1944 | 0.639 | 0.529 | 0.496 | 0.561 | 0.615 | 0.664 | 0.628 | 0.563 | 0.242 | 0.698 | 0.774 | 0.707 | 0.732 | 0.205 | 0.776 | 0.877 | 0.776 | 0.938 | 0.304 |
| NCI-H1975 | 0.304 | 0.265 | 0.303 | 0.275 | 0.281 | 0.31 | 0.224 | 0.123 | 0.115 | 0.2 | 0.185 | 0.261 | 0.167 | 0.16 | 0.584 | 0.646 | 0.281 | 0.117 | 0.126 |
| NCI-H1993 | 0.622 | 0.658 | 0.627 | 0.556 | 0.593 | 0.502 | 0.574 | 0.518 | 0.351 | 0.9 | 0.932 | 0.983 | 0.71 | 0.462 | 0.717 | 0.654 | 0.765 | 0.521 | 0.483 |
| NCI-H2009 | 1.15 | 1.03 | 1.01 | 0.842 | 1.06 | 1.05 | 1.04 | 0.868 | 0.124 | 1.1 | 1.06 | 1.03 | 1.08 | 0.121 | 1.24 | 1.21 | 1.21 | 0.959 | 0.0547 |
| NCI-H2023 | 0.215 | 0.231 | 0.241 | 0.156 | 0.237 | 0.247 | 0.227 | 0.141 | 0.0695 | 0.81 | 0.795 | 0.626 | 0.362 | 0.0768 | 0.605 | 0.539 | 0.732 | 0.488 | 0.0793 |
| NCI-H2085 | 0.971 | 0.755 | 0.871 | 0.852 | 0.784 | 0.941 | 0.968 | 0.54 | 0.301 | 0.505 | 0.472 | 0.359 | 0.205 | 0.189 | 0.978 | 1.1 | 0.908 | 0.43 | 0.282 |
| NCI-H2087 | 0.74 | 0.591 | 0.596 | 0.556 | 0.624 | 0.656 | 0.57 | 0.0837 | 0.0365 | 0.212 | 0.146 | 0.215 | 0.0619 | 0.0448 | 1.13 | 1.25 | 0.83 | 0.0689 | 0.0648 |
| NCI-H2126 | 0.743 | 0.649 | 0.663 | 0.681 | 0.612 | 0.702 | 0.678 | 0.617 | 0.424 | 0.875 | 0.999 | 0.938 | 0.744 | 0.465 | 0.683 | 0.787 | 0.792 | 0.774 | 0.563 |
| NCI-H2170 | 0.259 | 0.331 | 0.265 | 0.245 | 0.262 | 0.277 | 0.254 | 0.24 | 0.183 | 0.635 | 0.666 | 0.612 | 0.579 | 0.311 | 0.801 | 0.775 | 0.875 | 0.659 | 0.24 |
| NCI-H2228 | 0.395 | 0.323 | 0.311 | 0.322 | 0.316 | 0.364 | 0.361 | 0.0862 | 0.143 | 0.145 | 0.152 | 0.161 | 0.123 | 0.144 | 0.662 | 0.73 | 0.49 | 0.108 | 0.156 |
| NCI-H2347 | 0.474 | 0.476 | 0.435 | 0.397 | 0.456 | 0.44 | 0.423 | 0.403 | 0.272 | 0.509 |  | 0.266 | 0.346 | 0.201 | 0.96 | 1.18 | 1.05 | 0.875 | 0.345 |
| NCI-H2405 | 1.02 | 0.931 | 1.02 | 1.01 | 1.02 | 1.14 | 1.04 | 0.898 | 0.205 |  | 0.873 | 0.851 | 0.759 | 0.32 |  | 1.13 | 0.777 | 0.312 | 0.168 |
| NCI-H3122 | 0.202 | 0.194 | 0.191 | 0.18 | 0.194 | 0.198 | 0.207 | 0.189 | 0.154 | 0.064 | 0.0963 | 0.106 | 0.107 | 0.106 | 0.748 | 0.847 | 0.748 | 0.959 | 0.69 |
